The values below come from US7030150B2, “Benzimidazole compounds and antiviral uses thereof” (Trimeris, Inc., priority 2001, dated 2006).

A value given as a limit tells only on which side of the number the result lay.

The first data set relates to rhinoviruses. Conditions: cited from earlier work.
Consider `COc1ccc2[nH]c(C(O)C(O)c3nc4cc(OC)ccc4[nH]3)nc2c1` (stereo not drawn) [1,2-(5-methoxy-2-benzimidazole)-1,2-ethanediol], for which the “inhibition of the cytopathic effect” value is listed as 100%.

Another data set has as its system picornaviruses. Conditions: cited from earlier work.
In the case of `OC(c1nc2ccccc2[nH]1)C(O)c1nc2ccccc2[nH]1` (stereo not drawn) [1,2-bis(2-benzimidazole)-1,2-ethanediol], the “antiviral activity against an assortment of picornaviruses” value (from here on “antiviral activity against an assortment”) is “active”. As to `OC(c1ccccc1)c1nc2ccccc2[nH]1` (stereo not drawn) [2-(α-hydroxybenzyl)benzimidazole], the “antiviral activity against an assortment” value is given as “active”.

As to `c1ccc2[nH]cnc2c1` [benzimidazole], the “antiviral activity against an assortment” value is “active”.

Another data set has as its system uninfected Hep2 cells.
Settings: not given
The CC50 is the concentration that lowers cell viability or growth by half. As for `CCN(CC)CCCC(C)NCc1nc2ccccc2n1Cc1nc2ccccc2[nH]1` (stereo not drawn) [compound 148], the CC50 was no less than 100 µM. As to `c1ccc(CN2CCC(NCc3nc4ccccc4n3Cc3nc4ccccc4[nH]3)C2)cc1` (stereo not drawn) [compound 149], the half-maximal cytotoxic concentration (CC50) amounted to 39 µM.

Molecule `Clc1ccccc1CNCc1nc2ccccc2n1Cc1nc2ccccc2[nH]1` [compound 150] returned a CC50 of no less than 100 µM. Still for that read-out and setting: under `FC(F)(F)c1ccc(CNCc2nc3ccccc3n2Cc2nc3ccccc3[nH]2)cc1` [compound 151] stands no less than 100 µM; under `CC(C)NCc1nc2ccccc2n1Cc1nc2ccccc2[nH]1` [compound 152], no less than 100 µM; under `c1coc(CNCc2nc3ccccc3n2Cc2nc3ccccc3[nH]2)c1` [compound 154], no less than 100 µM.

Regarding `Clc1cccc(CNCc2nc3ccccc3n2Cc2nc3ccccc3[nH]2)c1` [compound 157], the CC50 is no less than 100 µM. Molecule `O=C1CCCN1CCCNCc1nc2ccccc2n1Cc1nc2ccccc2[nH]1` [compound 158] returned a CC50 of no less than 100 µM.

The molecule `CCOCCCNCc1nc2ccccc2n1Cc1nc2ccccc2[nH]1` [compound 159] yielded a CC50 of no less than 100 µM. For `CC1CCCCN1CCCNCc1nc2ccccc2n1Cc1nc2ccccc2[nH]1` (stereo not drawn) [compound 160], half-maximal cytotoxicity (CC50) was put at 88 µM.

Consider `Fc1cccc(F)c1CNCc1nc2ccccc2n1Cc1nc2ccccc2[nH]1` [compound 161], for which the 50% cytotoxic concentration (CC50) is no less than 100 µM. In turn, `CCN(CC)CCNCc1nc2ccccc2n1Cc1nc2ccccc2[nH]1` [compound 162] had a CC50 of no less than 100 µM.

The molecule `Clc1ccc(CCNCc2nc3ccccc3n2Cc2nc3ccccc3[nH]2)cc1` [compound 163] showed a CC50 of 16 µM.

In turn, `CNCc1nc2ccccc2n1Cc1nc2ccccc2[nH]1` [compound 164] showed a 50% cytotoxic concentration (CC50) of no less than 100 µM. Consider `c1ccc2[nH]c(Cn3c(CNC4CCCCC4)nc4ccccc43)nc2c1` [compound 165], for which the CC50 was no less than 100 µM. Take `O=c1[nH]ccn1CCNCc1nc2ccccc2n1Cc1nc2ccccc2[nH]1` [compound 166]: the CC50 is no less than 100 µM. `Fc1ccc(CCNCc2nc3ccccc3n2Cc2nc3ccccc3[nH]2)cc1` [compound 167] gave a CC50 of no less than 100 µM.

Regarding `c1ccc(CC(NCc2nc3ccccc3n2Cc2nc3ccccc3[nH]2)c2ccccc2)cc1` (stereo not drawn) [compound 168], the CC50 was no less than 100 µM. As to `c1ccc2[nH]c(Cn3c(CNCc4ccc5c(c4)OCO5)nc4ccccc43)nc2c1` [compound 169], the CC50 was no less than 100 µM. Same read-out and setting: the value for `c1ccc2[nH]c(Cn3c(CNCC4CCCO4)nc4ccccc43)nc2c1` (stereo not drawn) [compound 170] was no less than 100 µM; that for `Clc1ccc(CNCc2nc3ccccc3n2Cc2nc3ccccc3[nH]2)cc1Cl` [compound 171] was 58 µM; that for `CN1CCCC1CCNCc1nc2ccccc2n1Cc1nc2ccccc2[nH]1` (stereo not drawn) [compound 172] was 95 µM. `Fc1cc(F)cc(CNCc2nc3ccccc3n2Cc2nc3ccccc3[nH]2)c1` [compound 173] showed a CC50 of 6.4 µM. Take `CN(C)CCCNCc1nc2ccccc2n1Cc1nc2ccccc2[nH]1` [compound 174]: the CC50 is no less than 100 µM. Same read-out and setting: under `COc1ccccc1CCNCc1nc2ccccc2n1Cc1nc2ccccc2[nH]1` [compound 175] stands no less than 100 µM; under `CCCCC(CO)NCc1nc2ccccc2n1Cc1nc2ccccc2[nH]1` (stereo not drawn) [compound 176], no less than 100 µM; under `c1ccc2[nH]c(Cn3c(CNC4CCCC4)nc4ccccc43)nc2c1` [compound 177], no less than 100 µM. For the molecule `c1ccc2c(NCc3nc4ccccc4n3Cc3nc4ccccc4[nH]3)cccc2c1` [compound 180], it took 14 µM to reach half-maximal cytotoxicity (CC50). Same read-out and setting: under `COc1cccc(CNCc2nc3ccccc3n2Cc2nc3ccccc3[nH]2)c1OC` [compound 181] stands no less than 100 µM.

For `CCOCCCNCc1nc2ccccc2n1Cc1nc2ccccc2[nH]1` [compound 182], the CC50 was no less than 100 µM. Molecule `FC(F)(F)c1ccc(N2CCN(Cc3nc4ccccc4n3Cc3nc4ccccc4[nH]3)CC2)nc1` [compound 196] gave a CC50 of 78 µM.

For the molecule `COc1ccc(N2CCN(Cc3nc4ccccc4n3Cc3nc4ccccc4[nH]3)CC2)cc1` [compound 197], the CC50 was no less than 100 µM. Still for that read-out and setting: under `O=C(c1ccco1)N1CCN(Cc2nc3ccccc3n2Cc2nc3ccccc3[nH]2)CC1` [compound 198] stands no less than 100 µM; under `c1ccc2[nH]c(Cn3c(CN4CCCC4)nc4ccccc43)nc2c1` [compound 199], no less than 100 µM. The same measure, in the same setting: the value for `c1ccc2[nH]c(Cn3c(CN4CCC4)nc4ccccc43)nc2c1` [compound 200] was 7.6 µM; that for `C1=CCN(Cc2nc3ccccc3n2Cc2nc3ccccc3[nH]2)C1` [compound 201] was 19 µM. `C1=CCN(Cc2nc3ccccc3n2Cc2nc3ccccc3[nH]2)CC1` [compound 202] gave a CC50 of no less than 100 µM. `CCOC(=O)C1CCN(Cc2nc3ccccc3n2Cc2nc3ccccc3[nH]2)CC1` [compound 203] yielded a CC50 of no less than 100 µM.

`c1ccc(CC2=NCCN2Cc2nc3ccccc3n2Cc2nc3ccccc3[nH]2)cc1` [compound 204] gave a cytotoxic concentration (CC50) of no less than 100 µM. With `CC1CC(C)CN(Cc2nc3ccccc3n2Cc2nc3ccccc3[nH]2)C1` (stereo not drawn) [compound 205], the half-maximal cytotoxic concentration (CC50) was no less than 100 µM. In turn, `CC1C=CC(C)N1Cc1nc2ccccc2n1Cc1nc2ccccc2[nH]1` (stereo not drawn) [compound 207] showed a CC50 of no less than 100 µM.

For `OCC1CCCN1Cc1nc2ccccc2n1Cc1nc2ccccc2[nH]1` (stereo not drawn) [compound 209], the CC50 was no less than 100 µM. Consider `OCC1CCCCN1Cc1nc2ccccc2n1Cc1nc2ccccc2[nH]1` (stereo not drawn) [compound 210], for which the CC50 is 8 µM. `OCC1CCCN(Cc2nc3ccccc3n2Cc2nc3ccccc3[nH]2)C1` (stereo not drawn) [compound 211] returned a CC50 of 32 µM.

For `OCCC1CCCCN1Cc1nc2ccccc2n1Cc1nc2ccccc2[nH]1` (stereo not drawn) [compound 213], the CC50 was no less than 100 µM. Still for that read-out and setting: the value for `c1ccc2[nH]c(Cn3c(CN4CCC5CCCCC5C4)nc4ccccc43)nc2c1` (stereo not drawn) [compound 214] was no less than 100 µM. `FC(F)(F)c1cnc(N2CCCN(Cc3nc4ccccc4n3Cc3nc4ccccc4[nH]3)CC2)c(Cl)c1` [compound 215] showed a CC50 of no less than 100 µM. In turn, `OCCOCCN1CCN(Cc2nc3ccccc3n2Cc2nc3ccccc3[nH]2)CC1` [compound 216] gave a CC50 of 9 µM. As to `c1ccc2[nH]c(Cn3c(CN4CCC(C5CCNCC5)CC4)nc4ccccc43)nc2c1` [compound 217], the 50% cytotoxic concentration (CC50) was no less than 100 µM.

In turn, `FC(F)(F)c1cccc(N2CCN(Cc3nc4ccccc4n3Cc3nc4ccccc4[nH]3)CC2)c1` [compound 219] displayed a cytotoxic concentration (CC50) of no less than 100 µM. Molecule `Oc1ccc(N2CCN(Cc3nc4ccccc4n3Cc3nc4ccccc4[nH]3)CC2)cc1` [compound 220] came in with a CC50 of no less than 100 µM. Molecule `c1ccc2[nH]c(Cn3c(CN4CCSC4)nc4ccccc43)nc2c1` [compound 222] came in with a CC50 of no less than 100 µM.

`COc1cc2c(cc1OC)C(CC#N)N(Cc1nc3ccccc3n1Cc1nc3ccccc3[nH]1)CC2` (stereo not drawn) [compound 223] yielded a CC50 of no less than 100 µM.

Molecule `O=C1c2ccccc2C(=O)N1Cc1nc2ccccc2n1Cc1nc2ccccc2[nH]1` [compound 226] showed a CC50 of 50 µM. On the same count and under the same terms, under `Cc1ccc(N2CCN(Cc3nc4ccccc4n3Cc3nc4ccccc4[nH]3)CC2)c(C)c1` [compound 227] stands no less than 100 µM; under `c1ccc2[nH]c(Cn3c(CN4CCC(N5CCCC5)CC4)nc4ccccc43)nc2c1` [compound 228], 60 µM; under `CCN1CCN(Cc2nc3ccccc3n2Cc2nc3ccccc3[nH]2)CC1` [compound 230], no less than 100 µM. `c1ccc(CN2CCN(Cc3nc4ccccc4n3Cc3nc4ccccc4[nH]3)CC2)cc1` [compound 231] returned a CC50 of 15 µM. `O=C(OCc1ccccc1)N1CCCCN(Cc2nc3ccccc3n2Cc2nc3ccccc3[nH]2)CC1` [compound 232] had a CC50 of no less than 100 µM. `c1ccc2[nH]c(Cn3c(CN4CCCCCCC4)nc4ccccc43)nc2c1` [compound 233] came in with a half-maximal cytotoxic concentration (CC50) of no less than 100 µM.

Molecule `c1ccc2[nH]c(Cn3c(CN4CCC5CCCCC5C4)nc4ccccc43)nc2c1` (stereo not drawn) [compound 234] returned a CC50 of 24 µM. As to `O=C1C(=O)N(Cc2nc3ccccc3n2Cc2nc3ccccc3[nH]2)c2ccc(Br)cc21` [compound 235], the CC50 was no less than 100 µM.

`O=C1C(=O)N(Cc2nc3ccccc3n2Cc2nc3ccccc3[nH]2)c2ccc([N+](=O)[O-])cc21` [compound 236] registered a CC50 of no less than 100 µM.

Take `O=C1C(=O)N(Cc2nc3ccccc3n2Cc2nc3ccccc3[nH]2)c2ccc(F)cc21` [compound 237]: the CC50 was determined as 65 µM.

The next data set has as its system poliovirus type 1. Conditions: monkey kidney and HeLa cell cultures; cited from earlier work.
In the case of `OC(c1ccccc1)c1nc2ccccc2[nH]1` (stereo not drawn) [2-(α-hydroxybenzyl)benzimidazole], the “inhibition of poliovirus type 1” value is recorded as “inhibits”.
